Results as given in patent US9169252B2 (BRISTOL-MYERS SQUIBB COMPANY, priority 2014, dated 2015).
Read-outs that look alike come from different tables or passages of the source.

How the values were obtained:
[1] = tested on: TLR2 induced IL-6 in peripheral blood mononuclear cells (PBMCs); experiment: PBMC TLR2 Induced IL-6 Assay; format: cell-based, human; conditions: IL-6 by ELISA; for IC50: read-out: Cell IC50; for EC50: read-out: Cell EC50
Summary of the method: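 Lipoteichoic acid at 10 µg/ml served as TLR2 stimulus for 5 hours, following a 30-minute compound pretreatment at 37° C. Cells were Ficoll-isolated human PBMCs, 250000 cells/well, cultured in RPMI plus 10% heat-inactivated FCS.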

[2] = molecular target: IRAK4 (Homo sapiens (Human), UniProt Q9NWZ3); experiment: IRAK4 Inhibition Assay; format: biochemical; conditions: ATP 500 μM, read-out: IRAK4 IC50
Summary of the method: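 IRAK4 combined with fluorescent substrate and compounds, reacted 60 min at room temperature, stopped with 35 mM EDTA. Substrate and phosphorylated product separated electrophoretically on a Caliper LabChip 3000 mobility-shift reader.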

[3] = Homo sapiens, PBMC, PBMC TLR2 Induced IL-6 Assay, lipoteichoic acid stimulation
[4] = Homo sapiens, PBMC, human PBMCs, lipoteichoic acid stimulated
[5] = human PBMCs, lipoteichoic acid stimulated

Sequence of IRAK4 (Q9NWZ3 whole entry, species assumed): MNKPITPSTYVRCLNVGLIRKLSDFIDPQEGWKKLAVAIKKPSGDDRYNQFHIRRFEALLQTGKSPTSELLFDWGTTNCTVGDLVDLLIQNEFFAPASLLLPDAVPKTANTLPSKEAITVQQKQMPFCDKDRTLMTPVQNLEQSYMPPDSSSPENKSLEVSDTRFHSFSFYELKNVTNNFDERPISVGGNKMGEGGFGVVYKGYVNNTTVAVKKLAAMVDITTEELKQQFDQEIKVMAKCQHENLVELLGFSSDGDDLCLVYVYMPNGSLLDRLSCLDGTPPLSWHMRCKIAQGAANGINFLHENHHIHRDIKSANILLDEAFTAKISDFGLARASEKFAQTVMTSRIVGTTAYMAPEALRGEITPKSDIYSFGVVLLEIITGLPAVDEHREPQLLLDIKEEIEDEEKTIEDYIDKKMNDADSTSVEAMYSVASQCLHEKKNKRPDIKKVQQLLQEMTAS

Compound	IC50 ([2]; IRAK4 0.6 nM)	IC50 [1, 4]	EC50 [1, 4]	further results
CC(C)(O)[C@H](F)CNC(=O)c1cnc(-n2ncc3cc(F)cnc32)cc1Nc1cnn(CC(F)F)c1 [Example 384]	–	–	–	IC50 [1, 3]: 0.024 µM; IC50 ([2]; IRAK4 Inhibition Assay): 0.0023 µM
CC(C)(O)[C@H](F)CNC(=O)c1cnc(-n2ncc3cc(C#N)cnc32)cc1Nc1cnn(S(C)(=O)=O)c1 [Example 385]	–	–	–	IC50 [1, 3]: 0.04 µM; IC50 ([2]; IRAK4 Inhibition Assay): 0.0009 µM
CCNC(=O)n1cc(Nc2cc(-n3ncc4cc(C#N)cnc43)ncc2C(=O)NC[C@@H](F)C(C)(C)O)cn1 [Example 386]	–	–	–	EC50 [1, 3]: 0.079 µM; IC50 [1, 3]: 1.08 µM; IC50 ([2]; IRAK4 Inhibition Assay): 0.0015 µM
CC(C)NC(=O)c1cnc(-n2ncc3cc(C#N)cnc32)cc1Nc1cnn(CC(F)F)c1 [Example 388]	–	–	–	IC50 [1, 3]: 0.245 µM; IC50 ([2]; IRAK4 Inhibition Assay): 0.0112 µM
CCCNC(=O)c1cnc(-n2ncc3cc(C#N)cnc32)cc1Nc1cnn(CC(F)F)c1 [Example 389]	–	–	–	IC50 [1, 3]: 0.241 µM; IC50 ([2]; IRAK4 Inhibition Assay): 0.004 µM
CC(C)(C)NC(=O)c1cnc(-n2ncc3cc(C#N)cnc32)cc1Nc1cnn(CC(F)F)c1 [Example 390]	–	–	–	IC50 [1, 3]: 0.199 µM; IC50 ([2]; IRAK4 Inhibition Assay): 0.017 µM
CC(C)CNC(=O)c1cnc(-n2ncc3cc(C#N)cnc32)cc1Nc1cnn(CC(F)F)c1 [Example 391]	–	–	–	IC50 [1, 3]: 0.241 µM; IC50 ([2]; IRAK4 Inhibition Assay): 0.0062 µM
CCOCCNC(=O)c1cnc(-n2ncc3cc(C#N)cnc32)cc1Nc1cnn(CC(F)F)c1 [Example 392]	–	–	–	IC50 [1, 3]: 0.016 µM; IC50 ([2]; IRAK4 Inhibition Assay): 0.0071 µM
CCNC(=O)c1cnc(-n2ncc3cc(C#N)cnc32)cc1Nc1cnn(CC(F)F)c1 [Example 393]	–	–	–	IC50 [1, 3]: 0.25 µM; IC50 ([2]; IRAK4 Inhibition Assay): 0.0035 µM
CC(C)(O)[C@H]1CC[C@H](NC(=O)c2cnc(-n3ncc4cc(C#N)cnc43)cc2Nc2cnn(CC(F)F)c2)CC1 [Example 396]	0.0086 µM	0.157 µM	–	–
CC(C)(O)C(F)(F)CNC(=O)c1cnc(-n2ncc3cc(C#N)cnc32)cc1Nc1cnn(CC(F)F)c1 [Example 397]	0.0066 µM	0.21 µM	–	–
CC(C)(F)[C@H](F)CNC(=O)c1cnc(-n2cnc3cc(Cl)cnc32)cc1Nc1cnn(CC(F)F)c1 [Example 402]	0.0025 µM	0.412 µM	–	–
CC(C)(O)[C@H](F)CNC(=O)c1cnc(-n2ncc3cc(C#N)cnc32)cc1Nc1cc(C2CC2)n[nH]1 [Example 404]	0.0011 µM	0.164 µM	–	–
Cc1cc(Nc2cc(-n3ncc4cc(C#N)cnc43)ncc2C(=O)NC[C@@H](F)C(C)(C)O)[nH]n1 [Example 405]	0.0062 µM	0.561 µM	–	–
CC(C)c1cc(Nc2cc(-n3ncc4cc(C#N)cnc43)ncc2C(=O)NC[C@@H](F)C(C)(C)O)[nH]n1 [Example 406]	0.0048 µM	0.066 µM	–	–
CC(C)(O)[C@H](F)CNC(=O)c1cnc(-n2ncc3cc(C#N)cnc32)cc1Nc1ccn(CC(F)F)n1 [Example 407]	0.0031 µM	0.287 µM	–	–

Compound	IC50 ([2]; IRAK4 0.6 nM)	IC50 [1, 4]	EC50 [1, 4]	further results
Cn1nccc1Nc1cc(-n2ncc3cc(C#N)cnc32)ncc1C(=O)NC[C@@H](F)C(C)(C)O [Example 409]	0.0175 µM	–	0.463 µM	–
CC(C)(O)[C@H](F)CNC(=O)c1cnc(-n2ncc3cc(C#N)cnc32)cc1Nc1cnn(-c2ncccn2)c1 [Example 410]	0.0015 µM	–	0.092 µM	–
CC(C)(O)[C@H](F)CNC(=O)c1cnc(-n2ncc3cc(C#N)cnc32)cc1Nc1cnn(-c2ncc(F)cn2)c1 [Example 411]	0.0016 µM	–	0.051 µM	–
Cc1cc(Nc2cc(-n3ncc4cc(C#N)cnc43)ncc2C(=O)NC[C@@H](F)C(C)(C)O)n(C)n1 [Example 413]	0.007 µM	0.382 µM	–	–
CC(C)Nc1cc(-n2ccc3cc(C#N)cnc32)ncc1C(=O)NC12CCC(O)(CC1)C2 [Example 415]	0.0148 µM	–	0.286 µM	–
CC(C)(O)[C@H](F)CNC(=O)c1cnc(-n2ccc3cc(C#N)cnc32)cc1Nc1cccc(S(N)(=O)=O)c1 [Example 416]	0.0019 µM	–	0.058 µM	–
COc1cccc(Nc2cc(-n3ccc4cc(C#N)cnc43)ncc2C(=O)NC[C@@H](F)C(C)(C)O)c1 [Example 418]	0.0044 µM	–	0.065 µM	–
CC(C)Nc1cc(-n2ccc3cc(C#N)cnc32)ncc1C(=O)N[C@H]1CC[C@@](F)(c2nccn2C)CC1 [Example 420]	0.0044 µM	–	0.186 µM	–
CC(C)(O)[C@H](F)CNC(=O)c1cnc(-n2ccc3cc(C#N)cnc32)cc1Nc1ccc2ncoc2c1 [Example 421]	0.0019 µM	0.167 µM	–	–
CC(C)(O)[C@H](F)CNC(=O)c1cnc(-n2ccc3cc(C#N)cnc32)cc1NCCC(F)(F)F [Example 425]	0.0018 µM	–	0.154 µM	–
CC(C)(O)[C@H]1CC[C@H](NC(=O)c2cnc(-n3ccc4cc(F)cnc43)cc2NC2CC2)CC1 [Example 428]	0.0046 µM	–	0.361 µM	–
CC(C)(O)[C@H](F)CNC(=O)c1cnc(-n2ccc3cc(C#N)cnc32)cc1Nc1cccc(-c2ncc[nH]2)c1 [Example 431]	0.0021 µM	–	0.106 µM	–
CCn1nnnc1-c1ccc(Nc2cc(-n3ccc4cc(C#N)cnc43)ncc2C(=O)NC[C@@H](F)C(C)(C)O)cc1 [Example 433]	0.0041 µM	0.499 µM	0.164 µM	–
CC(C)NC(=O)[C@H](F)CNc1cc(-n2ccc3cc(C#N)cnc32)ncc1C(=O)NC[C@@H](F)C(C)(C)O [Example 435]	0.0099 µM	–	0.291 µM	–
CC(C)(O)[C@H](F)CNC(=O)c1cnc(-n2ccc3cc(C#N)cnc32)cc1Nc1ccc2nn[nH]c2c1 [Example 436]	0.0018 µM	–	0.165 µM	–
CC(C)(O)[C@H](F)CNC(=O)c1cnc(-n2ccc3cc(C#N)cnc32)cc1NC1COC1 [Example 437]	0.001 µM	–	0.042 µM	–

More lines, main results first:

IC50 ([2]; IRAK4 0.6 nM)	Compound	IC50 [1, 4]	EC50 [1, 4]	further results
0.0022 µM	CC(C)(F)[C@H](F)CNC(=O)c1cnc(-n2ncc3cc(C#N)cnc32)cc1Nc1cnn(CC(F)F)c1 [Example 395]	0.085 µM	–	–
0.0049 µM	Cn1cc(Nc2cc(-n3ncc4cc(Cl)cnc43)ncc2C(=O)NC[C@@H](F)C(C)(C)O)cn1 [Example 398]	0.277 µM	–	–
0.0013 µM	Cn1cc(Nc2cc(-n3ccc4cc(C#N)cnc43)ncc2C(=O)NC[C@@H](F)C(C)(C)O)cn1 [Example 399]	0.024 µM	–	–
0.0078 µM	CC(C)(O)[C@H](F)CNC(=O)c1cnc(-n2cnc3cc(Cl)cnc32)cc1Nc1cnn(C(F)F)c1 [Example 400]	0.156 µM	–	–
0.0057 µM	CC(C)(O)[C@H](F)CNC(=O)c1cnc(-n2cnc3cc(C#N)cnc32)cc1Nc1cnn(C(F)F)c1 [Example 401]	0.485 µM	–	–
0.0025 µM	CC(C)(F)[C@H](F)CNC(=O)c1cnc(-n2cnc3cc(C#N)cnc32)cc1Nc1cnn(CC(F)F)c1 [Example 403]	0.147 µM	–	–
0.0018 µM	CC(C)(O)[C@H](F)CNC(=O)c1cnc(-n2ncc3cc(C#N)cnc32)cc1Nc1ccn(CC(F)(F)F)n1 [Example 408]	0.073 µM	–	–
0.0036 µM	CC(C)(O)[C@H](F)CNC(=O)c1cnc(-n2ncc3cc(C#N)cnc32)cc1Nc1cc(-c2ccccc2)n[nH]1 [Example 412]	0.053 µM	–	–
0.0055 µM	CC(C)Nc1cc(-n2ccc3cc(C#N)cnc32)ncc1C(=O)NCCCOC(C)(C)C [Example 417]	–	0.171 µM	–
0.0048 µM	CC(C)(O)/C=C/Nc1cc(-n2ccc3cc(C#N)cnc32)ncc1C(=O)NC[C@@H](F)C(C)(C)O [Example 419]	–	0.107 µM	–
0.0023 µM	CC(O)CCNc1cc(-n2ccc3cc(C#N)cnc32)ncc1C(=O)NC[C@@H](F)C(C)(C)O (stereo partly drawn) [Example 422]	–	–	EC50 [1, 5]: 0.004 µM
0.006 µM	Cn1nccc1Nc1cc(-n2ccc3cc(C#N)cnc32)ncc1C(=O)NC[C@@H](F)C(C)(C)O [Example 424]	–	–	EC50 [1, 5]: 0.338 µM
0.0015 µM	CC(C)(O)[C@H]1CC[C@H](NC(=O)c2cnc(-n3ccc4cc(C#N)cnc43)cc2NC2CC2)CC1 [Example 429]	–	0.092 µM	–
0.0021 µM	CC(C)(O)[C@H](F)CNC(=O)c1cnc(-n2ccc3cc(C#N)cnc32)cc1Nc1cccc(C#N)c1F [Example 430]	–	0.208 µM	–
0.0021 µM	C[C@@H](CO)Nc1cc(-n2ccc3cc(F)cnc32)ncc1C(=O)N[C@H]1CC[C@H](C(C)(C)O)CC1 [Example 432]	–	0.08 µM	–
